# Tested on: Bax, Bcl-2, caspase-3, PARP in SMMC-7721 cells
# Assay: Western blot assay of apoptosis-related proteins
# Format: cell-based, human
# Description: Next, to investigate the preliminarily molecular mechanisms underlying the cell apoptosis profiles in 8h-treated cells, we conducted western blot analysis to examine the expression of apoptosis proteins in SMMC-7721 cells. It is well known that Bcl-2 and Bax are anti-apoptotic or pro-apoptotic regulator proteins, respectively, and caspase-3 is the execution factor of apoptosis. In addition, PARP is one of several known cellular substrates for caspase-3 and the cleavage of PARP by caspase-3 is considered to be a hallmark of apoptosis.
# Figure 5 Effect of 8h on the expression of apoptosis-related proteins in SMMC-7721 cells. (A) The expression of Bax, Bcl2, caspase 3 and β-actin was examined by western blot analysis. SMMC-7721 cells were incubated with, or without, 8h at the indicated concentrations for 48 h and the levels of protein expression were detected using specific antibodies, and β-actin was used as the control. Data shown are representative images of each protein for three separate experiments. (B) Quantitative analysis: the relative levels of each protein compared to control β-actin were determined by densimetric scanning. Data are expressed as means ± SD from three separate experiments. *P < 0.01 vs control.
# The mechanisms of the cell apoptosis were determined by western blot assay. SMMC-7721 cells at 1.5 × 10^5/mL were treated with 3.5, 7.0, or 14 μM 8h or vehicle control for […]. After harvested and lyzed, the cell lysates (50 μg/lane) were separated by SDS-PAGE (12% gel) and transferred onto nitrocellulose membranes. After blocked with 5% fat-free milk, the target proteins were probed with anti-Bcl-2, anti-Bax, anti-caspase-3, anti-PARP, and anti-β-actin antibodies (Cell Signaling, Boston), respectively. The bound antibodies were detected by HRP-conjugated second antibodies and visualized using the enhanced chemiluminescent reagent.
# [1] = western blot, 3.5, 7.0 or 14 μM
structure (smiles),measurement,setting,value
"Cc1nc(C(=O)NCCCCCNC(=O)c2ccccc2O)cc2c1[nH]c1ccccc12 [8h, N-(5-(2-Hydroxybenzamido)pentyl)-1-methyl-9H-pyrido[3,4-b]indole-3-carboxamide]",Expression of Bcl-2,[1],dramatically reduced in a concentration-dependent manner
same,Protein levels of Bax,[1],significantly increased
same,Cleavage of PARP and caspase-3,"western blot, vs control group",more significant cleavage of both PARP and caspase-3 than the control group
